Results published in US11415579B2, “Assay for measuring a rate of reaction between a target and a ligand candidate” (Imperial College Innovations Ltd., priority 2016, dated 2022).

How the values were obtained:
[1] = molecular target: T1, Cdk2(C177A, F80C) (Homo sapiens, UniProt P24941, C177A/F80C); assay: Kinetic thiol consumption assay with Cdk2 mutant F80C, incl. kobs versus concentration (Kd, k2); format: binding; set-up: key to Rate enhancement, Cdk2 F80C: Cdk2 rate constant divided by model-thiol rate constant; details: additional mutation C177A; for Rate constant with Cdk2 F80C: Protein: Cdk2, cysteine position F80C, in h^-1
T1 construct: poly-histidine; made in house; host or cells: E. coli
How it was run: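 His-tagged Cdk2(C177A/F80C) from E. coli or model thiol, 5 μM in degassed phosphate buffer pH 8 with TCEP beads, reacted with acrylamide ligands; fluorescence (ex/em 380/470 nm) normalized to DMSO control and fitted to first-order decay for kobs. Kd and k2 obtained from hyperbolic fit of kobs versus ligand concentration.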

[2] = molecular target: T2, Cdk2(S181C) (C177A) (Homo sapiens, UniProt P24941, C177A/S181C); assay: Kinetic thiol consumption assay with Cdk2 mutant S181C; format: binding; set-up: key to Rate enhancement, Cdk2 S181C: rate constant with Cdk2 ÷ rate constant with model thiol (fold); details: additional mutation C177A; for Rate constant with Cdk2 S181C: Protein: Cdk2, cysteine position S181C, in h^-1
T2 construct: poly-histidine; made in house; host or cells: E. coli
How it was run: (§1)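 5 μM thiol, degassed phosphate pH 8, 2% v/v immobilized TCEP beads; 1 h RT; fluorescence ex 380/em 470 nm; normalized vs DMSO/thiol-only; first-order exponential decay fit → rate constant; Cdk2 k / model-thiol k = rate enhancement per acrylamide.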

[3] = molecular target: T3, Cdk2(N272C) (C177A) (Homo sapiens, UniProt P24941, C177A/N272C); assay: Kinetic thiol consumption assay with Cdk2 mutant N272C; format: binding; set-up: key to Rate enhancement, Cdk2 N272: rate constant with Cdk2 ÷ rate constant with model thiol (fold); details: for Rate enhancement, Cdk2 N272: Cdk2 N272, additional mutation C177A; for Rate constant with Cdk2 N272C: Protein: Cdk2, cysteine position N272C, additional mutation C177A, in h^-1
T3 construct: poly-histidine; made in house; host or cells: E. coli
How it was run: as §1

[4] = molecular target: T4, Cdk2(T182C) (C177A) (Homo sapiens, UniProt P24941, C177A/T182C); assay: Kinetic thiol consumption assay with Cdk2 mutant T182C; format: binding; set-up: key to Rate enhancement, Cdk2 T182C: rate constant with Cdk2 ÷ rate constant with model thiol (fold); details: additional mutation C177A; for Rate constant with Cdk2 T182C: Protein: Cdk2, cysteine position T182C, in h^-1
T4 construct: poly-histidine; made in house; host or cells: E. coli
How it was run: as §1

[5] = Kinetic thiol consumption assay with model thiol glutathione; format: physicochemical; set-up: Rate constant with glutathione (k(GSH)): unit not given here; details: for Rate constant with glutathione (k(GSH)): 500 μM ligand, 5 μM thiol, phosphate buffer pH 8; for Rate constant with Glutathione: Protein: Glutathione, cysteine position NA, in h-1
How it was run: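 First, 5 μM glutathione in degassed phosphate buffer (pH 8) receives immobilized TCEP beads (2% v/v). Then acrylamide is added and plates incubate 1 h at room temperature. Finally, fluorescence (380/470 nm) is normalized and fitted to first-order decay for rate constants.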

[6] = molecular target: T5, Cdk2[C177A, F80C, K278C] (Homo sapiens, UniProt P24941, C177A/F80C/K278C); assay: Kinetic thiol consumption assay with mutant Cdk2 as model thiol; format: binding; set-up: unit not given here; details: 500 μM ligand, 5 μM thiol, phosphate buffer pH 8
T5 construct: poly-histidine; made in house; host or cells: E. coli
How it was run: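 Model thiol: His-tagged human Cdk2 C177A/F80C/K278C (two engineered surface cysteines), E. coli-expressed, 5 μM in degassed phosphate buffer pH 8 with immobilized TCEP beads (2% v/v). Fluorescence (ex/em 380/470 nm) followed over time at room temperature, normalized to DMSO/thiol control. First-order decay fit gives rate constants.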

[7] = molecular target: T6, Cdk2(H71C) (C177A) (Homo sapiens, UniProt P24941, C177A/H71C); assay: Kinetic thiol consumption assay with Cdk2 mutant H71C; format: binding; set-up: key to Rate enhancement, Cdk2 H71C: rate constant with Cdk2 ÷ rate constant with model thiol (fold); details: additional mutation C177A; for Rate constant with Cdk2 H71C: Protein: Cdk2, cysteine position H71C, in h^-1
T6 construct: poly-histidine; made in house; host or cells: E. coli
How it was run: as §1

[8] = molecular target: T7, Cdk2(R122C) (C177A) (Homo sapiens, UniProt P24941, C177A/R122C); assay: Kinetic thiol consumption assay with Cdk2 mutant R122C; format: binding; set-up: key to Rate enhancement, Cdk2 R122C: rate constant with Cdk2 ÷ rate constant with model thiol (fold); details: additional mutation C177A; for Rate constant with Cdk2 R122C: Protein: Cdk2, cysteine position R122C, in h-1
T7 construct: poly-histidine; made in house; host or cells: E. coli
How it was run: as §1

[9] = molecular target: T8, human cyclin-dependent kinase 2 (Cdk2) (Homo sapiens, UniProt P24941); assay: Kinetic thiol consumption assay with wild type Cdk2 (C177); format: binding; set-up: key to Rate enhancement, Cdk2 WT: k(Cdk2) divided by k(model thiol); Rate constant with Cdk2 (k(Cdk2)): unit not given here; details: for Rate constant with Cdk2 (k(Cdk2)): 500 μM ligand, 5 μM thiol, phosphate buffer pH 8; for Rate enhancement, Cdk2 WT: no additional mutations; for Rate constant with Cdk2 WT: Protein: Cdk2, cysteine position WT, in h^-1; for k(Cdk2)/k(Cdk2_mut) rate enhancement: model thiol Cdk2[C177A, F80C, K278C]; for k(Cdk2)/k(GSH) rate enhancement: model thiol glutathione
T8 construct: poly-histidine; made in house; host or cells: E. coli
How it was run: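 His-tagged human Cdk2 (single surface cysteine C177), expressed in E. coli, or a model thiol at 5 μM in degassed phosphate buffer pH 8 was pre-treated with immobilized TCEP beads (2% v/v) before acrylamide addition. Fluorescence (ex/em 380/470 nm) was read after 1 h at room temperature, normalized to DMSO/thiol-only control and plotted versus time.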

[10] = molecular target: T9, Cdk2(S276C) (C177A) (Homo sapiens, UniProt P24941, C177A/S276C); assay: Kinetic thiol consumption assay with Cdk2 mutant S276C; format: binding; set-up: key to Rate enhancement, Cdk2 S276C: rate constant with Cdk2 ÷ rate constant with model thiol (fold); details: additional mutation C177A; for Rate constant with Cdk2 S276C: Protein: Cdk2, cysteine position S276C, in h^-1
T9 construct: poly-histidine; made in house; host or cells: E. coli
How it was run: as §1

With C=CC(=O)Nc1cccc(C(=O)c2ccccc2)c1 [CA-218] the “Rate enhancement, Cdk2 F80C” value [1] was 11.9, the “Rate constant with Cdk2 F80C” value [1] was 0.1527 and the “Rate enhancement, Cdk2 S181C” value [2] was 1.116. The “Rate constant with Cdk2 S181C” value [2] was 0.01432, the “Rate enhancement, Cdk2 N272” value [3] was 0.3525 and the “Rate constant with Cdk2 N272C” value [3] was 0.004522. For the same compound, the “Rate enhancement, Cdk2 T182C” value [4] was 9.969, the “Rate constant with Cdk2 T182C” value [4] was 0.1279 and the “Rate constant with glutathione (k(GSH))” value [5] was 0.0129. For the same compound, the “Rate constant with Glutathione” value [5] was 0.01283, the “Rate constant with Cdk2[C177A, F80C, K278C] (k(Cdk2_mut))” value (“Rate constant … (k(Cdk2_mut))” below) [6] was 0.1192 and the “Rate enhancement, Cdk2 H71C” value [7] was 0.809. The “Rate constant with Cdk2 H71C” value [7] was 0.01038, the “Rate enhancement, Cdk2 R122C” value [8] was 0.6834 and the “Rate constant with Cdk2 R122C” value [8] was 0.008768. For the same compound, the “Rate constant with Cdk2 (k(Cdk2))” value [9] was 0.03272, the “Rate enhancement, Cdk2 WT” value [9] was 2.55 and the “Rate constant with Cdk2 WT” value [9] was 0.03272. The “k(Cdk2)/k(Cdk2_mut) rate enhancement” value [9] was 0.2745, the “k(Cdk2)/k(GSH) rate enhancement” value [9] was 2.536 and the “Rate enhancement, Cdk2 S276C” value [10] was 2.167. For the same compound, the “Rate constant with Cdk2 S276C” value [10] was 0.0278.

With C=CC(=O)NCc1ccc(-c2csnn2)cc1 [BN-66] the “Rate enhancement, Cdk2 F80C” value [1] was 2.336, the “Rate constant with Cdk2 F80C” value [1] was 0.003494 and the “Rate enhancement, Cdk2 S181C” value [2] was 0.8476. For the same compound, the “Rate constant with Cdk2 S181C” value [2] was 0.001268, the “Rate enhancement, Cdk2 N272” value [3] was 1.553 and the “Rate constant with Cdk2 N272C” value [3] was 0.002323. For the same compound, the “Rate enhancement, Cdk2 T182C” value [4] was 3.479, the “Rate constant with Cdk2 T182C” value [4] was 0.005204 and the “Rate constant with glutathione (k(GSH))” value [5] was 0.0016. The “Rate constant with Glutathione” value [5] was 0.001496, the “Rate constant … (k(Cdk2_mut))” value [6] was 0.0035 and the “Rate enhancement, Cdk2 H71C” value [7] was 0.7553. The “Rate constant with Cdk2 H71C” value [7] was 0.00113, the “Rate enhancement, Cdk2 R122C” value [8] was 0 and the “Rate constant with Cdk2 (k(Cdk2))” value [9] was 0.00089. The “Rate enhancement, Cdk2 WT” value [9] was 0.9753, the “Rate constant with Cdk2 WT” value [9] was 0.001459 and the “k(Cdk2)/k(Cdk2_mut) rate enhancement” value [9] was 0.2541. The “k(Cdk2)/k(GSH) rate enhancement” value [9] was 0.5565 and the “Rate enhancement, Cdk2 S276C” value [10] was 0.

For C=CC(=O)NC1CC2CC1C1CCCC21 (centres unmarked) [CA-159], the “Rate enhancement, Cdk2 F80C” value [1] was 0, the “Rate enhancement, Cdk2 S181C” value [2] was 0 and the “Rate enhancement, Cdk2 N272” value [3] was 0.2158. For the same compound, the “Rate constant with Cdk2 N272C” value [3] was 0.001525, the “Rate enhancement, Cdk2 T182C” value [4] was 0.9382 and the “Rate constant with Cdk2 T182C” value [4] was 0.00663. For the same compound, the “Rate constant with glutathione (k(GSH))” value [5] was 0.00418, the “Rate constant with Glutathione” value [5] was 0.007067 and the “Rate constant … (k(Cdk2_mut))” value [6] was 0.0013. For the same compound, the “Rate enhancement, Cdk2 H71C” value [7] was 0.5333, the “Rate constant with Cdk2 H71C” value [7] was 0.003769 and the “Rate enhancement, Cdk2 R122C” value [8] was 0.2488. For the same compound, the “Rate constant with Cdk2 R122C” value [8] was 0.001758, the “Rate constant with Cdk2 (k(Cdk2))” value [9] was 0.00232 and the “Rate enhancement, Cdk2 WT” value [9] was 0.5437. For the same compound, the “Rate constant with Cdk2 WT” value [9] was 0.003842, the “k(Cdk2)/k(Cdk2_mut) rate enhancement” value [9] was 1.79 and the “k(Cdk2)/k(GSH) rate enhancement” value [9] was 0.5547. For the same compound, the “Rate enhancement, Cdk2 S276C” value [10] was 0.1634 and the “Rate constant with Cdk2 S276C” value [10] was 0.001155.

For C=CC(=O)NC1CCN(Cc2ccccc2)CC1 [BN-78], the “Rate enhancement, Cdk2 F80C” value [1] was 0.2437, the “Rate constant with Cdk2 F80C” value [1] was 0.001773 and the “Rate enhancement, Cdk2 S181C” value [2] was 0.09002. For the same compound, the “Rate constant with Cdk2 S181C” value [2] was 0.0006548, the “Rate enhancement, Cdk2 N272” value [3] was 0.5049 and the “Rate constant with Cdk2 N272C” value [3] was 0.003673. The “Rate enhancement, Cdk2 T182C” value [4] was 0.1316, the “Rate constant with Cdk2 T182C” value [4] was 0.0009576 and the “Rate constant with glutathione (k(GSH))” value [5] was 0.00403. For the same compound, the “Rate constant with Glutathione” value [5] was 0.007274, the “Rate constant … (k(Cdk2_mut))” value [6] was 0.00196 and the “Rate enhancement, Cdk2 H71C” value [7] was 0. The “Rate enhancement, Cdk2 R122C” value [8] was 0.2392, the “Rate constant with Cdk2 R122C” value [8] was 0.00174 and the “Rate constant with Cdk2 (k(Cdk2))” value [9] was 0.00116. The “Rate enhancement, Cdk2 WT” value [9] was 0.1591, the “Rate constant with Cdk2 WT” value [9] was 0.001157 and the “k(Cdk2)/k(Cdk2_mut) rate enhancement” value [9] was 0.5905. For the same compound, the “k(Cdk2)/k(GSH) rate enhancement” value [9] was 0.2873, the “Rate enhancement, Cdk2 S276C” value [10] was 0.1622 and the “Rate constant with Cdk2 S276C” value [10] was 0.00118.
